According to patent publication US20220009920A1 (GB005, Inc., priority 2020, published 2022):

Tests used:
Test in all cases: Large panel kinase profiling
Assay type in all cases: biochemical
Conditions in all cases: 1 μM test article, 1 mM ATP
TAOK1 = target: T1, TAOK1 (Homo sapiens, UniProt Q7L7X3)
T1 construct: AssayQuant Technologies, Inc. (contract assay)
T1 sequence (Q7L7X3 1-1001): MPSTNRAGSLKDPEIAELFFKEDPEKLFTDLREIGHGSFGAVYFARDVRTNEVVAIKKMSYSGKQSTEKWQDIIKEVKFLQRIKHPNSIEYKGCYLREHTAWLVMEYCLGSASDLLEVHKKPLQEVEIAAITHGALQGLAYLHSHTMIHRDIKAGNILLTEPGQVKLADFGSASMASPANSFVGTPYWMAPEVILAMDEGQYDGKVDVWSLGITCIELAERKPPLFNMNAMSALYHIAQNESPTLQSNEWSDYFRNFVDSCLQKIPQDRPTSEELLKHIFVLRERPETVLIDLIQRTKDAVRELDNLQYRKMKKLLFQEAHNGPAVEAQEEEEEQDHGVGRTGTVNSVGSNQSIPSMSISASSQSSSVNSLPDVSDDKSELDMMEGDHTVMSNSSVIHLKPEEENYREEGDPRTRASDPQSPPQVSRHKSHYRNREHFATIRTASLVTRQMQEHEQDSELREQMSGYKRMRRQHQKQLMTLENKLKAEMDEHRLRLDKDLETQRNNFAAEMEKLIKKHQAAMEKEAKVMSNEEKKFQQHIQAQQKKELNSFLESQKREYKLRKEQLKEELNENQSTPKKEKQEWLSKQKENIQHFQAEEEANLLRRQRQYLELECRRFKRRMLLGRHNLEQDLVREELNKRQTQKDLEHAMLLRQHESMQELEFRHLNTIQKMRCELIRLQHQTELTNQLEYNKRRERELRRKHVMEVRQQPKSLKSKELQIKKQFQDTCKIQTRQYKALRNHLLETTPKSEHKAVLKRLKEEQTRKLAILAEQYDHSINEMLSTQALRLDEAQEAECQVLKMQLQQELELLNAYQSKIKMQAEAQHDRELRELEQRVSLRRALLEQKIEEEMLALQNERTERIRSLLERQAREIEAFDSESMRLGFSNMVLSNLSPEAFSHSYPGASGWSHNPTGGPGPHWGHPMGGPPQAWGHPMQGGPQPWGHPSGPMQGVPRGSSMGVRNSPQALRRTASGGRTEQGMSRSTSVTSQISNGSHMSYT
Method: (§1) Large panel kinase profiling was performed at AssayQuant Technologies, Inc. 260 Cedar Hill Street, Marlborough, Mass. 01752 using the PhosphoSens® CSox-Sensor platform using 1 μM test article concentration and 1 mM ATP concentration (www.assayquant.com). Reactions were run in Corning, half-area 96-well, white flat round bottom polystyrene NBS microplates (Cat. #3642) after sealing using optically-clear adhesive film (TopSealA-Plus plate seal, PerkinElmer), applied with either a roller or a paddle to eliminate evaporation and resulting drift. The standard total reaction volume was 50 μL. All experiments were ran at 30° C. to control for fluctuations in ambient temperature. Plates were read from the top in kinetic mode (readings taken every 1 min), monitoring fluorescence intensity with filters using Ex 360 nm and Em 485 nm and a band width of 40 and 20 nm, respectively, and a gain of 80. Data analysis was performed using either Graphpad Prism or Gene Data Screener software.

MET = target: T2, MET (Homo sapiens, UniProt P08581)
T2 construct: AssayQuant Technologies, Inc. (assay service)
Method: as §1

MINK1 = target: T3, MINK1 (Homo sapiens, UniProt Q8N4C8)
T3 construct: AssayQuant Technologies, Inc. (assay service)
Method: as §1

PKN2 = PKN2 (Homo sapiens, UniProt Q16513)
Method: as §1

SGK1 = target: T4, SGK1 (Homo sapiens, UniProt O00141)
T4 construct: AssayQuant Technologies, Inc. (contract assay)
T4 sequence (O00141 1-431): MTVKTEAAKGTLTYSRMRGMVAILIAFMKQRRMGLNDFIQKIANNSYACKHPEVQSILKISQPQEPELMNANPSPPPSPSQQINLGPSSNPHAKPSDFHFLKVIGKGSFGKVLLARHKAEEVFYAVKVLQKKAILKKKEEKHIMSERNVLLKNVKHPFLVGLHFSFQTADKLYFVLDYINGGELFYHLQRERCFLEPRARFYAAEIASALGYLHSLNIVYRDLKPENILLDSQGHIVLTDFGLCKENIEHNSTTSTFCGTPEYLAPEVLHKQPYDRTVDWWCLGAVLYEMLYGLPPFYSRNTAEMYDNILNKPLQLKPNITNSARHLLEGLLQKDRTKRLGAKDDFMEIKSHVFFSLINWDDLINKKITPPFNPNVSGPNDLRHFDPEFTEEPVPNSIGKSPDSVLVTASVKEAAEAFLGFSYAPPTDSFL
Method: as §1

CAMK2G = target: T5, CAMK2G (Homo sapiens, UniProt Q13555)
T5 construct: AssayQuant Technologies, Inc. (ran the panel)
Method: as §1

IKBKB/IKKB = target: T6, IKBKB/IKKB (Homo sapiens, UniProt O14920)
T6 construct: AssayQuant Technologies, Inc. (service provider)
T6 sequence (O14920 1-756): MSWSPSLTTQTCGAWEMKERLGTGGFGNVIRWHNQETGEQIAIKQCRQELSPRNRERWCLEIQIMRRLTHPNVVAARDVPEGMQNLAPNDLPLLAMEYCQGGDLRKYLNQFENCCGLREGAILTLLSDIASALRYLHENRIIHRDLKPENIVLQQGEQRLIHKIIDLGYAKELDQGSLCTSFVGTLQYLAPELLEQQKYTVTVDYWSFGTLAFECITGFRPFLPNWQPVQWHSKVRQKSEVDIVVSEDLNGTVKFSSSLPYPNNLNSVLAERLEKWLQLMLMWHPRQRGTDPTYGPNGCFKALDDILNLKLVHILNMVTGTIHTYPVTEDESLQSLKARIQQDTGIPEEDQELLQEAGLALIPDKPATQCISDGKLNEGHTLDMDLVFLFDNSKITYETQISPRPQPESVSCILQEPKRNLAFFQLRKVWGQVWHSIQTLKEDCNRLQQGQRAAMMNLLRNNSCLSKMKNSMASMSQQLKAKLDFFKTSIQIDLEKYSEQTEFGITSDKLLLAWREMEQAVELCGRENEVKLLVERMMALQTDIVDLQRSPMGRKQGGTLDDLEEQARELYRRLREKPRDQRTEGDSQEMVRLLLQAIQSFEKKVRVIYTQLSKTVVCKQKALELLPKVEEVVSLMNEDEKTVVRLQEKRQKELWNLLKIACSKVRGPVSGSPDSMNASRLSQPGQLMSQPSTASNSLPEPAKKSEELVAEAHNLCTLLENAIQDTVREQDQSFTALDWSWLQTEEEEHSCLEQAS
Method: as §1

MARK2 = target: T7, MARK2 (Homo sapiens, UniProt Q7KZI7)
T7 construct: AssayQuant Technologies, Inc. (assay service)
Method: as §1

T2 sequence (P08581 25-1390): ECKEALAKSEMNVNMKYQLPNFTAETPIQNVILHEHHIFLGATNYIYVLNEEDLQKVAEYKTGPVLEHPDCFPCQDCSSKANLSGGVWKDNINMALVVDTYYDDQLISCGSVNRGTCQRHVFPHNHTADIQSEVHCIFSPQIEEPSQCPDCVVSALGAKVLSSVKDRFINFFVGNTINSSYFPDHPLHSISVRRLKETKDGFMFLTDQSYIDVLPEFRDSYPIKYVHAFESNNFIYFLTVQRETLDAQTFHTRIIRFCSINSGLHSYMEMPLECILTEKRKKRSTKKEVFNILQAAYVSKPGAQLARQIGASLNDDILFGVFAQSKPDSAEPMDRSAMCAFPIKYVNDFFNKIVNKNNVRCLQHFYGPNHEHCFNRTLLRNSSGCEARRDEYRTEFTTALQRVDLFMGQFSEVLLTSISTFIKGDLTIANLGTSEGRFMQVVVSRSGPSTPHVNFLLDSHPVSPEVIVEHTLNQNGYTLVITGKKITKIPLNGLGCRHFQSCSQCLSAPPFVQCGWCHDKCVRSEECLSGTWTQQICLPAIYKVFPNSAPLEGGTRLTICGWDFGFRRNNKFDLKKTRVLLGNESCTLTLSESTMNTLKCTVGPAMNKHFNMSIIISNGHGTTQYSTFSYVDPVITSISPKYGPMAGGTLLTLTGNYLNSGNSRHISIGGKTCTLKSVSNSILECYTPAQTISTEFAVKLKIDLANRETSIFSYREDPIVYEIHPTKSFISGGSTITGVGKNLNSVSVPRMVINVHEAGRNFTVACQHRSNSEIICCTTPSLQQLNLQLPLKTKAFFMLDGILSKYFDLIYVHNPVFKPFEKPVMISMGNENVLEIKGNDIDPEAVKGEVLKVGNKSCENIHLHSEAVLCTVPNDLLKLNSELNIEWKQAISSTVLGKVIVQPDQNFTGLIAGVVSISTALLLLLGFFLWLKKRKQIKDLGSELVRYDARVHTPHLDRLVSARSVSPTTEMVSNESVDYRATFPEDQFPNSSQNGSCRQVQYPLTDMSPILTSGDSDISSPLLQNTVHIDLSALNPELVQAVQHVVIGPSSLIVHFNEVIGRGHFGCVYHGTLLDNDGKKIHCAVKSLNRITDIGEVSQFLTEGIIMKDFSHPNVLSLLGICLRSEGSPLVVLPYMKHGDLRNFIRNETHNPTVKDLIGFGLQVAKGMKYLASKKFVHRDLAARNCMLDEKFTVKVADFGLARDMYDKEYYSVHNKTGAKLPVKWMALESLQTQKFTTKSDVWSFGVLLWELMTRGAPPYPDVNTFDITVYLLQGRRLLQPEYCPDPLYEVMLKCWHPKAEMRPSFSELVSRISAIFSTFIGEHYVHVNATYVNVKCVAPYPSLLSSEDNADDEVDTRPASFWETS
T3 sequence (Q8N4C8 whole entry, species assumed): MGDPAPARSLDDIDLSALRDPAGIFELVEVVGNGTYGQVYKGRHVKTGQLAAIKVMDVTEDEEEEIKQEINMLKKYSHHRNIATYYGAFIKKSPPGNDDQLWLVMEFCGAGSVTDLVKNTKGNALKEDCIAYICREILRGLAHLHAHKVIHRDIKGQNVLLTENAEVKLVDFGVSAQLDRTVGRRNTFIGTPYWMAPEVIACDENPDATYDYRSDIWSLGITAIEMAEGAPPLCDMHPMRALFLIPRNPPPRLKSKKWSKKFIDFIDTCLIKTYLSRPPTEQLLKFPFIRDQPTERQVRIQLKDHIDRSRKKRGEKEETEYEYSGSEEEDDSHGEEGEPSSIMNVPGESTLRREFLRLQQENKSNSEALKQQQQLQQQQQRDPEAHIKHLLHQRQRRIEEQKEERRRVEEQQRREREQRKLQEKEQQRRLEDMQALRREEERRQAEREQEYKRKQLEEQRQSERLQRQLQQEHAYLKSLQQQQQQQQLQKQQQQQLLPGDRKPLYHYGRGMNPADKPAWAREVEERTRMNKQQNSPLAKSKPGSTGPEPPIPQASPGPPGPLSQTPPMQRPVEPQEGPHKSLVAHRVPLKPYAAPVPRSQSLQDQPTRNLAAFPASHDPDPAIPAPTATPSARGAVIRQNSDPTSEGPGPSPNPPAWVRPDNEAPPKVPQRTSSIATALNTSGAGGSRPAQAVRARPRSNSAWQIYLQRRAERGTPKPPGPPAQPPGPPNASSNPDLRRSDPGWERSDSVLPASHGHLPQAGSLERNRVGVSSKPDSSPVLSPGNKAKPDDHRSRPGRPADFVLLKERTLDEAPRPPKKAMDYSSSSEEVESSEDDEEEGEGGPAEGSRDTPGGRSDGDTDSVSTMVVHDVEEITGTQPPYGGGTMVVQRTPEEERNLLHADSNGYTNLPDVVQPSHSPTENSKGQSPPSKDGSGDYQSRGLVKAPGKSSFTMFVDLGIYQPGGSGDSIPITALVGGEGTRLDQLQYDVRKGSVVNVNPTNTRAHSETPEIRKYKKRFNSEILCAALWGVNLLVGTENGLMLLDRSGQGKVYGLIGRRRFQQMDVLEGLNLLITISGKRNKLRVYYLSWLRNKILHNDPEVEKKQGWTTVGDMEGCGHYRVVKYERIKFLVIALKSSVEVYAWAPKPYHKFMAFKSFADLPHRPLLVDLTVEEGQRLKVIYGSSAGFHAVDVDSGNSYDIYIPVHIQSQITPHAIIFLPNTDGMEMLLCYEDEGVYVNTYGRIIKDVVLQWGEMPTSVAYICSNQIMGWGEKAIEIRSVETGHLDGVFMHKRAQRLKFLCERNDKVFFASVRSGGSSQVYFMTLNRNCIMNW
T5 sequence (Q13555 whole entry, species assumed): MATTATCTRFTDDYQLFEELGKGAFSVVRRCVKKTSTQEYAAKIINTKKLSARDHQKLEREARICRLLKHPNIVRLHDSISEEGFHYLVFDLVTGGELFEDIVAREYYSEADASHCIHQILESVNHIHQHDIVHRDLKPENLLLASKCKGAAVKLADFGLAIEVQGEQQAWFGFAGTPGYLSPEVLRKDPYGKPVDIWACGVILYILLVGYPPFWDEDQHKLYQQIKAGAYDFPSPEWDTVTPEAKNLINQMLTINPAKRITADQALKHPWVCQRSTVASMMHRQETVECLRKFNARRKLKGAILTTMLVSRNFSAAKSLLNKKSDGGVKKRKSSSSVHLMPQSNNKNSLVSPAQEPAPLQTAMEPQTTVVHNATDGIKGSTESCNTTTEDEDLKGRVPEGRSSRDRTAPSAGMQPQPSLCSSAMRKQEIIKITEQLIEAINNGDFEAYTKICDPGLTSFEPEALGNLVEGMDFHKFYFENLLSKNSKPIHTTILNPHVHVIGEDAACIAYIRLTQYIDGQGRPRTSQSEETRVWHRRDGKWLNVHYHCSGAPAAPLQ
Chain of PKN2 (Q16513 whole entry, species assumed): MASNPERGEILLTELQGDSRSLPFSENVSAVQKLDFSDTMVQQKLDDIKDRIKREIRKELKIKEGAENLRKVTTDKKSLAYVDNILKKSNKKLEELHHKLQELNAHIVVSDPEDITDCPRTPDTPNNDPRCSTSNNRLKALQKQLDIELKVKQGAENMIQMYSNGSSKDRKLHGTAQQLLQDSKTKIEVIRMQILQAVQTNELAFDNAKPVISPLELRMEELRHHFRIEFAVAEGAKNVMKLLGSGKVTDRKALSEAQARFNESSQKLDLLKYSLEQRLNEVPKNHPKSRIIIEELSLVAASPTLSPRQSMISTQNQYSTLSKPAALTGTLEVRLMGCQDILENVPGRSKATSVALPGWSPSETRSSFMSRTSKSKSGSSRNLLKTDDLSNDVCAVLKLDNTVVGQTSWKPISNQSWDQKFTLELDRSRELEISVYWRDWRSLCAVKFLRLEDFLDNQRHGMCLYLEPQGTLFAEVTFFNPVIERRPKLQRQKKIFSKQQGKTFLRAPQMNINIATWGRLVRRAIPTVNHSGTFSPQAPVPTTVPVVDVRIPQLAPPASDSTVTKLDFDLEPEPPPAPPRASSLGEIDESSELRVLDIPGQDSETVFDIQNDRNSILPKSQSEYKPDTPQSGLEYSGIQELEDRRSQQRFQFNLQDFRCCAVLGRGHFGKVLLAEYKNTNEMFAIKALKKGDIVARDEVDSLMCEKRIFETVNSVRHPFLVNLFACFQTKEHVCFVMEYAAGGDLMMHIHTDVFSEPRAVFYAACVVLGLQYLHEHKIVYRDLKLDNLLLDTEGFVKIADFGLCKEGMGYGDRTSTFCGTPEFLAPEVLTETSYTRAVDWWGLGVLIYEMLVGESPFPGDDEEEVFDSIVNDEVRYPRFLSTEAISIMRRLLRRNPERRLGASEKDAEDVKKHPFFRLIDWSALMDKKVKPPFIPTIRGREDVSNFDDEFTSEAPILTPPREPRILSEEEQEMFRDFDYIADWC
T7 sequence (Q7KZI7 whole entry, species assumed): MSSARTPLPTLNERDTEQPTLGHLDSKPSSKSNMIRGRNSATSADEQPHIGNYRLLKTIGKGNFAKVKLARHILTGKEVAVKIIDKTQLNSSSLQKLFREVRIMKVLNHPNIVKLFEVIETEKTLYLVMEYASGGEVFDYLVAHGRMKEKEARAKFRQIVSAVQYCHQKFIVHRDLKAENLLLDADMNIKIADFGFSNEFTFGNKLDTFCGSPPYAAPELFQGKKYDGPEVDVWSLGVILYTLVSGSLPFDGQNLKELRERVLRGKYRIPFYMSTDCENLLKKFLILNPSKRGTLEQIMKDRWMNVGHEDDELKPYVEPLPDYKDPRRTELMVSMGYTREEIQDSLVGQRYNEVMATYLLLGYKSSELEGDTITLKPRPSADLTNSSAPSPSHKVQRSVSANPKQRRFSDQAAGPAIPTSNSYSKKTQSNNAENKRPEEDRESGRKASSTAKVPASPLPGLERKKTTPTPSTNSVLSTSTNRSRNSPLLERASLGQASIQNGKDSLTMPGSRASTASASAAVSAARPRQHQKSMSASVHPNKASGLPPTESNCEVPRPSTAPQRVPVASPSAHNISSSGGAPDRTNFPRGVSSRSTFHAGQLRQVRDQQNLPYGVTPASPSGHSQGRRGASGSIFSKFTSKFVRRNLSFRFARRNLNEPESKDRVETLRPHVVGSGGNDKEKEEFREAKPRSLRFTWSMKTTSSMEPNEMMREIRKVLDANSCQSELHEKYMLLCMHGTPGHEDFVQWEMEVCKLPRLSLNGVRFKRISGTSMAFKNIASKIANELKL

Row | Compound | inhibition at 1 µM (TAOK1) | inhibition at 1 µM (MET) | inhibition at 1 µM (MINK1) | inhibition at 1 µM (PKN2) | inhibition at 1 µM (SGK1) | inhibition at 1 µM (CAMK2G) | inhibition at 1 µM (IKBKB/IKKB) | inhibition at 1 µM (MARK2)
1 | C=CC(=O)N1CCCC(c2c(F)cc(C(N)=O)c3[nH]c4c(c23)CCCCC4)C1 (single isomer, unassigned) [Compound 5-6] | 11.9% | 12% | -2.8% | 0.7% | 4.3% | 15.7% | 2.5% | 11.8%
2 | C=CC(=O)N1CCC[C@@H](c2c(F)cc(C(N)=O)c3[nH]c4c(c23)CCC4)C1 [Compound 10-2, (S)-8-(1-acryloylpiperidin-3-yl)-7-fluoro-1,2,3,4-tetrahydrocyclo-penta[b]indole-5-carboxamide] | 11.1% | 28.1% | -18.4% | 7.5% | 14.8% | -37.5% | -17% | -8.8%
3 | C=CC(=O)N1CCC[C@@H](c2c(F)cc(C(N)=O)c3[nH]c4c(c23)CC2(CC4)CC2)C1 [Compound 6-2, (S)-5-(1-acryloylpiperidin-3-yl)-6-fluoro-1,2,4,9-tetrahydrospiro[carbazole-3,1′-cyclopropane]-8-carboxamide] | 9.5% | 18.9% | -22.7% | 16.2% | 10.7% | -7.1% | -7.6% | -33.3%
